Assay results reported in PubChem BioAssay AID624041 (The Scripps Research Institute Molecular Screening Center, 2012).
The source made the active and inactive calls. How the calls were made is not given here.

Experiments:
[1] = in vivo ABHD6 inhibition in mouse liver, late-stage follow-up, in vivo study for DAGLb inhibitor project, competitive gel-based ABPP, fluorescence (AID 624041); conditions: in vivo dosing, anti-target, probe FP-Rh, stronger effect = higher value
[2] = target: Monoacylglycerol lipase ABHD6 (Mus musculus) (UniProt Q8R2Y0); experiment: as above; conditions: in vivo dosing
Monoacylglycerol lipase ABHD6 (Mus musculus), sequence (Q8R2Y0 whole entry, looked up): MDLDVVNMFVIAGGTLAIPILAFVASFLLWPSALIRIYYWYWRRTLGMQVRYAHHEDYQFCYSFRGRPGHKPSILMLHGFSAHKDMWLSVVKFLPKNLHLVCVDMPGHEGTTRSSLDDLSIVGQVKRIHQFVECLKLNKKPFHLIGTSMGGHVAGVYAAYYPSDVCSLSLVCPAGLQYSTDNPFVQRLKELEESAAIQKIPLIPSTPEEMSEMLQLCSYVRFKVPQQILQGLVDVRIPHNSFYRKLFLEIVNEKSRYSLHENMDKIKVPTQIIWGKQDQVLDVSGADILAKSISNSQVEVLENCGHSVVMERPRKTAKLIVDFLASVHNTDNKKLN

Question: Which results are given for `COc1ccc(-c2ccc(-c3cn(C(=O)N4CCCCC4c4ccccc4)nn3)cc2)cc1` (stereo not drawn)?
Answer: inhibition ([1]; 65 kDa SH, dose or concentration not given here): 70% (inactive); inhibition ([1]; 65 kDa SH, inhibition at 5 mg/kg): 5%; inhibition ([1]; 72 kDa SH, dose or concentration not given here): 80% (inactive); inhibition ([1]; 72 kDa SH, inhibition at 5 mg/kg): 20%; inhibition ([2]; probe FP-Rh, stronger effect = higher value, dose or concentration not given here): 95%; inhibition ([2]; probe FP-Rh, inhibition at 5 mg/kg, stronger effect = higher value): 98%; inhibition ([2]; probe HT-01, stronger effect = higher value, dose or concentration not given here): 90%; inhibition ([2]; probe HT-01, inhibition at 5 mg/kg, stronger effect = higher value): 90%
